# Article PMC9751013 (European Journal of Medicinal Chemistry, 2022)
# Tests used:
# [1] = molecular target: SARS-CoV-2 papain-like protease (PL^pro) (Severe acute respiratory syndrome coronavirus 2, UniProt P0DTD1); assay: SARS-CoV-2 PLpro enzyme inhibition screening; type: biochemical
# [2] = molecular target: T1, dengue virus NS2B/NS3 serine protease (Dengue virus type 2, UniProt P29990); assay: Dengue virus NS2B/NS3 protease inhibition screening; type: biochemical, dengue virus 2
# T1 sequence (P29990 1476-1653 limits assumed): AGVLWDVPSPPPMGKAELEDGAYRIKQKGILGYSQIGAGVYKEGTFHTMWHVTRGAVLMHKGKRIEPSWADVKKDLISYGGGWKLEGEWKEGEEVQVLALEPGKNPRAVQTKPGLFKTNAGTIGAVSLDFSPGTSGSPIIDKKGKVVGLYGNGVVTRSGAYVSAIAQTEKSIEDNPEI
# [3] = molecular target: hCatB (Homo sapiens, UniProt P07858); assay: hCatB enzyme inhibition assay; type: biochemical; details: hCatB vs hCatL
# [4] = molecular target: T2, SARS-CoV-2 M^pro (Severe acute respiratory syndrome coronavirus 2, UniProt P0DTD1); type: biochemical
# [5] = molecular target: T2, SARS-CoV-2 M^pro; type: biochemical; details: inhibitor at 10-fold IC50, 60 min incubation, 25 h of dialysis
SMILES,inhibition of SARS-CoV-2 PL^pro at 100 μM [1],inhibitory activity against dengue virus NS2B/NS3 serine protease at 100 μM [2],Ki hCatB fold higher compared to Ki hCatL [3] [fold],"binding affinity to SARS-CoV-2 M^pro, fold lower with respect to SPR38 [4] [fold]",enzymatic activity of M^pro recovered after dialysis [5]
"CCCC[C@H](NC(=O)OCc1ccccc1)C(=O)N[C@H](/C=C/C(C)=O)C[C@@H]1CCNC1=O [SPR38, Benzyl ((S)-1-oxo-1-(((S,E)-5-oxo-1-((S)-2-oxopyrrolidin-3-yl)hex-3-en-2-yl)amino)hexan-2-yl)carbamate]",no inhibition,no inhibitory activity,~2,–,–
"CCC[C@H](NC(=O)OCc1ccccc1)C(=O)N[C@H](/C=C/C(C)=O)C[C@@H]1CCNC1=O [SPR35, Benzyl ((S)-1-oxo-1-(((S,E)-5-oxo-1-((S)-2-oxopyrrolidin-3-yl)hex-3-en-2-yl)amino)pentan-2-yl)carbamate]",–,–,–,~7,–
"CC(=O)/C=C/[C@H](C[C@@H]1CCNC1=O)NC(=O)[C@H](CC1CC1)NC(=O)OCc1ccccc1 [SPR39, Benzyl ((S)-3-cyclopropyl-1-oxo-1-(((S,E)-5-oxo-1-((S)-2-oxopyrrolidin-3-yl)hex-3-en-2-yl)amino)propan-2-yl)carbamate]",no inhibition,no inhibitory activity,~6,–,did not show recovering enzymatic activities
"CC(=O)/C=C/[C@H](C[C@@H]1CCNC1=O)NC(=O)[C@H](CC1CCCCC1)NC(=O)OCc1ccccc1 [SPR41, Benzyl ((S)-3-cyclohexyl-1-oxo-1-(((S,E)-5-oxo-1-((S)-2-oxopyrrolidin-3-yl)hex-3-en-2-yl)amino)propan-2-yl)carbamate]",no inhibition,no inhibitory activity,–,–,did not show recovering enzymatic activities
